From ChEMBL document CHEMBL4138061, “Structure-activity relationships for the synthesis of selective cyclooxygenase 2 inhibitors: an overview (2009-2016)” (Medchemcomm, 2017)

Experiments:
[1] = biological target: T1, Prostaglandin G/H synthase 2 (Homo sapiens, UniProt P35354); experiment: Inhibition of human COX2 assessed as reduction in PGE2 production incubated for 2 mins using arachidonic acid substrate by enzyme immuno assay
T1 sequence (P35354 whole entry): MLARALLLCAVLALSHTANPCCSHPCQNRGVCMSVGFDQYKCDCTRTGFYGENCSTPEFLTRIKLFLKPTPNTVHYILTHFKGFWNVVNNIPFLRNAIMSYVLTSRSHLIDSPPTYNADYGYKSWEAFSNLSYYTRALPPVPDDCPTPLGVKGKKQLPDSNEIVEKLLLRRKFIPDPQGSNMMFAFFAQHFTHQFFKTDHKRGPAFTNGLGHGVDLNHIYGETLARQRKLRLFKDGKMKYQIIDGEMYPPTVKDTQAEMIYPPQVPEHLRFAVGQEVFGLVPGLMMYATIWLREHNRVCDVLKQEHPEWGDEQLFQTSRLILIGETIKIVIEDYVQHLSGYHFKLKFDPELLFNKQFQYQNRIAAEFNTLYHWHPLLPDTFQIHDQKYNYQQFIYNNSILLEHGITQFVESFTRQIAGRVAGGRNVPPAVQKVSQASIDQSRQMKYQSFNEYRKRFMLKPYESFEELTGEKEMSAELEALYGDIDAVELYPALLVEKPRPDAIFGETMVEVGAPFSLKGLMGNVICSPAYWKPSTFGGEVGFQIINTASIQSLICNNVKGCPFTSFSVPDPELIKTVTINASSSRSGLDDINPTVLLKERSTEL

[2] = biological target: T2, Prostaglandin G/H synthase 1 (Homo sapiens, UniProt P23219); experiment: Inhibition of human COX1 assessed as reduction in PGE2 production incubated for 2 mins using arachidonic acid substrate by enzyme immuno assay
T2 sequence (P23219 whole entry): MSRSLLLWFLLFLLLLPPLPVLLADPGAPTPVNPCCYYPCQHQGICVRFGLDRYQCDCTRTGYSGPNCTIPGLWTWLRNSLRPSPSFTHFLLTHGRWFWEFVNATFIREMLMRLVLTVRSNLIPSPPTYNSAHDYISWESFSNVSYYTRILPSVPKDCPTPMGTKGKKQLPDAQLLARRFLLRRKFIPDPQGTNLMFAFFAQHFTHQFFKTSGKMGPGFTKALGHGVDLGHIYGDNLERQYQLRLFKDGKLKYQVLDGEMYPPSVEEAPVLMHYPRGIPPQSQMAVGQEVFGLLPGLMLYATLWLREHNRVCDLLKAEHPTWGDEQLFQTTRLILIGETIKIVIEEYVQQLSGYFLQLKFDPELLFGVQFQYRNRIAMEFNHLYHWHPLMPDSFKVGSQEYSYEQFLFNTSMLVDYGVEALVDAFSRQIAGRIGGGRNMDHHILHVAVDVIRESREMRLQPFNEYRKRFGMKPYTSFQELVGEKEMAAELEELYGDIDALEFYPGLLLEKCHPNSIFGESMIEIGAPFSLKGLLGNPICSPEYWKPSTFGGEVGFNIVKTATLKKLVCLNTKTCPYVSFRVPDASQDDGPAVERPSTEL

[3] = species on record: Homo sapiens; experiment: Selectivity index, ratio of IC50 for human COX1 to IC50 for human COX2
[4] = biological target: T1, Prostaglandin G/H synthase 2; experiment: Inhibition of COX2 in human lympho-monocytes suspension assessed as reduction in LPS-induced PGE2 production pre-incubated for 30 mins before LPS stimulation for 24 hrs by EIA method; type: cell-based
[5] = biological target: T3, Prostaglandin G/H synthase 1 (Ovis aries, UniProt P05979); experiment: Inhibition of ovine COX1 using arachidonic acid substrate by TMPD dye based colorimetry
T3 sequence (P05979 whole entry): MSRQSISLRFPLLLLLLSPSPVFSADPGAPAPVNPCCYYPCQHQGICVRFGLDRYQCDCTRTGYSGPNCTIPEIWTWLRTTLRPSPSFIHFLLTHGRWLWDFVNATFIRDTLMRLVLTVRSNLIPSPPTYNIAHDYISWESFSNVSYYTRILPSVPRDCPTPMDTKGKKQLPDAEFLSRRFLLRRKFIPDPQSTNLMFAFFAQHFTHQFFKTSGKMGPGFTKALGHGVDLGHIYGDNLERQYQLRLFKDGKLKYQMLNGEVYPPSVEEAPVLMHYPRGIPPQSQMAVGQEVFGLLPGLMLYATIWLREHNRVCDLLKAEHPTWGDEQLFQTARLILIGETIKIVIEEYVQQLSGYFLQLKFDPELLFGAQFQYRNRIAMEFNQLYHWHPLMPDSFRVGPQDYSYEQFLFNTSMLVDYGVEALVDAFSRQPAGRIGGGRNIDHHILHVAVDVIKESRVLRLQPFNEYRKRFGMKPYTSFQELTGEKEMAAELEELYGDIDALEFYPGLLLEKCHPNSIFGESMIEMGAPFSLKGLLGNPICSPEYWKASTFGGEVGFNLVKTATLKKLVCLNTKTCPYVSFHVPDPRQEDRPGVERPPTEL

[6] = species on record: Ovis aries; experiment: Selectivity index, ratio of IC50 for ovine COX1 to IC50 for ovine COX2
[7] = biological target: T4, Prostaglandin G/H synthase 1 (Ovis aries) (UniProt P05979); experiment: Inhibition of ovine COX1 at 10 ug/ml using arachidonic acid substrate by TMPD dye based colorimetry
T4 sequence (whole entry): T3 sequence (P05979 whole entry)

[8] = biological target: T5, Prostaglandin G/H synthase 2 (Ovis aries) (UniProt P79208); settings: 10 ug/ml
T5 sequence (whole entry): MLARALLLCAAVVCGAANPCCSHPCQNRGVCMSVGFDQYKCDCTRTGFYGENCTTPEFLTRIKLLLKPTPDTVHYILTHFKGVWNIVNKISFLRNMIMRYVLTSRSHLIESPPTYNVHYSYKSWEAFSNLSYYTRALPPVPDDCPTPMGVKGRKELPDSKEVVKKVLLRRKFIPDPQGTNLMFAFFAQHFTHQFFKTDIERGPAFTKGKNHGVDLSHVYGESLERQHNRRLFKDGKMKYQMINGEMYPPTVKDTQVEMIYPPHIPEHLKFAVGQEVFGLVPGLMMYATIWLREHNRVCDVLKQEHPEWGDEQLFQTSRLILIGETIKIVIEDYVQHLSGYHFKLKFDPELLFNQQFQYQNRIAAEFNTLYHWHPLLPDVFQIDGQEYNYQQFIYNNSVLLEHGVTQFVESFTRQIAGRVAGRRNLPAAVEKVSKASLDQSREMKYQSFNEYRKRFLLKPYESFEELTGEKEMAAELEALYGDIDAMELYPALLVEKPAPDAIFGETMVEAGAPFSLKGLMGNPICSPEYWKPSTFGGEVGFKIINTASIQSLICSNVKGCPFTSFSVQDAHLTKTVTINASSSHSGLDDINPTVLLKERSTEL
Description: Inhibition of ovine COX2 at 10 ug/ml using arachidonic acid substrate by TMPD dye based colorimetry

[9] = biological target: T3, Prostaglandin G/H synthase 1; experiment: Inhibition of ovine COX1 by enzyme chemiluminescence assay
[10] = biological target: T6, Prostaglandin G/H synthase 2 (Ovis aries, UniProt P79208); experiment: Inhibition of ovine COX2 by enzyme chemiluminescence assay
T6 sequence (P79208 whole entry): T5 sequence (whole entry)

[11] = Selectivity index, ratio of IC50 for ovine COX1 to IC50 for human COX2
[12] = biological target: T1, Prostaglandin G/H synthase 2; experiment: Inhibition of human recombinant COX2 assessed as reduction in […] production incubated for 10 mins using arachidonic acid substrate by enzyme immuno assay
[13] = biological target: T3, Prostaglandin G/H synthase 1; experiment: Inhibition of ovine COX1 by fluorescence based assay
[14] = biological target: T1, Prostaglandin G/H synthase 2; experiment: Inhibition of human COX2 by fluorescence based assay
[15] = biological target: T1, Prostaglandin G/H synthase 2; experiment: Inhibition of human recombinant COX2 by enzyme immuno assay
[16] = biological target: T1, Prostaglandin G/H synthase 2; experiment: Inhibition of COX2 (unknown origin)
[17] = biological target: T2, Prostaglandin G/H synthase 1; experiment: Inhibition of COX1 (unknown origin)
[18] = species on record: Homo sapiens; experiment: Selectivity index, ratio of IC50 for COX1 (unknown origin) to IC50 for COX2 (unknown origin)
[19] = biological target: T3, Prostaglandin G/H synthase 1; experiment: Inhibition of ovine recombinant COX1 by enzyme immuno assay

NS(=O)(=O)c1ccc(N2N=C(c3ccc(N4CCOCC4)cc3)CC2c2ccc(F)cc2F)cc1 (stereo not given)
IC50 [1]: 80 nM | IC50 [2]: 36.1 µM | Ratio IC50 [3]: 451

Cc1ccc(Nc2c(F)cccc2Cl)c(Cc2nnn[nH]2)c1
IC50 [4]: 14 nM

Cc1cc(C)c2c(n1)nn1c(/C=C/c3ccc([N+](=O)[O-])cc3)c(C)[nH]c21
IC50 [5]: 63.8 µM | Ratio IC50 [6]: 133 | inhibition [7]: 3.92% | inhibition [8]: 76%

CS(=O)(=O)c1ccc(-c2cc(Cn3ccnc3)c3ccc4c(c3n2)CCCC4)cc1
Ratio IC50 [6]: 548 | IC50 [9]: 34.5 µM | IC50 [10]: 63 nM

CS(=O)(=O)c1ccc(C2NN=C(c3ccc([N+](=O)[O-])cc3)O2)cc1 (stereo not given)
Ratio IC50 [11]: 133 | IC50 [12]: 480 nM

Cc1ccc(-c2c(-c3ccc(S(C)(=O)=O)cc3)c3cccc4ccn2c43)cc1
IC50 [13]: > 100 µM | IC50 [14]: 20 nM | Ratio IC50 [11]: > 5000

CS(=O)(=O)c1ccc(-n2nc(-c3ccc(O)cc3)cc2-c2ccc(C(F)(F)F)cc2)cc1
IC50 [15]: 970 nM | Ratio IC50 [11]: 6.08

CS(=O)(=O)c1ccc(C2C(c3ccccc3)=NOC23COc2ccccc2C3=O)cc1 (stereo not given)
IC50 [16]: 90 nM | IC50 [17]: 10.5 µM | Ratio IC50 [18]: 116

CCOc1ccc(-c2cc(-c3ccc(C(F)(F)F)cc3)n(-c3ccc(S(C)(=O)=O)cc3)n2)cc1
IC50 [15]: 970 nM | Ratio IC50 [11]: 5.77 | IC50 [19]: 5.6 µM

Cc1ccc(-c2nn(Cc3nnc(-c4ccccc4[N+](=O)[O-])o3)c(=O)c3ccccc23)cc1C
IC50 [5]: > 50 µM
